The values that follow come from PMC10004559, “Identification of residues involved in allosteric signal transmission from amino acid binding site of pyruvate kinase muscle isoform 2” (PLOS ONE, 2023).

Where “and” joins values, the source holds several entries; their conditions need not be identical. Identical values can stand only once. Like-named read-outs stand apart in the source and are kept apart here.

For test [1], the target named is T1, wtPKM2 (Homo sapiens, UniProt P14618).
T1 construct: made in house; host or cells: E. coli BL21(DE3) pLysS
The experiment in a line: PKM2-LDH coupled pyruvate kinase activity assay. The test is classed as biochemical. The note with it: ADP 0.8 mM; for Vmax / kcat: 10 nM wtPKM2 in presence of 2 mM of the labelled AA, PEP varied.
Description: (§3) The decrease in absorbance at 340 nm was recorded for a minute to monitor the progress of the reactions.

Test [2] has as its target T2, PKM2 N75L (Homo sapiens, UniProt P14618, N75L).
T2 construct: made in house; host or cells: E. coli BL21(DE3) pLysS
The experiment in a line: PKM2-LDH coupled pyruvate kinase activity assay. Format: biochemical. The note with it: 4200 nM PKM2 N75L in presence of 2 mM of the labelled AA; PEP 0.025–8 mM, ADP 0.8 mM.
Description: as §3

Test [3] concerns the target T3, PKM2 R106A (Homo sapiens, UniProt P14618, R106A).
T3 construct: made in house; host or cells: E. coli BL21(DE3) pLysS
The test is described as follows: PKM2-LDH coupled pyruvate kinase activity assay. Format: biochemical. The note with it: for Vmax / kcat: 50 nM PKM2 R106A in presence of 2 mM of the labelled AA (Val 10 mM), PEP 0.025–8 mM, ADP 0.8 mM, Cys data fitted with allosteric sigmoidal equation; for decrease of catalytic efficiency of PKM2 R106A: in the presence of Val (10 mM) and Cys (2 mM), versus no AA.
Description: as §3

The target of test [4] is T3, PKM2 R106A. The experiment in a line: Ligand binding assay, intrinsic tryptophan fluorescence quenching. The note with it: for weakening of ADP binding affinity versus absence of any AAs: PKM2 R106A in the presence of the labelled AA; for decrease of affinity for the AA relative to wtPKM2: PKM2 R106A versus wtPKM2. How it is done: (§1) All ligand binding studies were conducted in a buffer containing 1.6 μM enzyme dissolved in 20 mM Tris-HCl (pH 7.5) and 150 mM KCl. […] The decrease of intrinsic tryptophan fluorescence with increasing substrate concentration was measured using a Cary Eclipse Fluorescence Spectrophotometer (Agilent Technologies, Santa Clara, CA). To determine the binding affinity of wtPKM2 and the variants for the AAs mentioned previously, the enzymes were dissolved in the buffer followed by monitoring fluorescence quenching as the AA concentration was increased. The wavelength used to excite PKM2 was set at 295 nm, while the emission wavelength was 340 nm with slit widths of 5 and 10 nm, respectively. The fluorescence intensity values were used to calculate fractional saturation, which was fitted to the one-site specific binding Eq (3), or the Hill Eq (4) using GraphPad Prism (San Diego, CA), Y=Bmax×X/Kd+X (3) Y=Bmax×x^h/Kdh+x^h (4) where Bmax is maximum binding, Y is fractional saturation, h is the Hill coefficient, Kd is dissociation constant, and X is ligand concentration.

In test [5] the target is T2, PKM2 N75L. The experiment in a line: Gel-filtration study of oligomeric state. The note with it: 0.1 mg/ml PKM2 N75L, 10 mM AA. The protocol: (§2) The flow rate was kept constant at 0.5 ml/min using an AKTA Pure FPLC system (GE Healthcare Life Sciences, Marlborough, MA). All AA concentrations used in the experiments were fixed at 10 mM. Column calibration was conducted using gel-filtration molecular weight standards (Bio-Rad) containing bovine thyroglobulin (670 kDa), bovine γ-globulin (158 kDa), chicken ovalbumin (44 kDa), horse myoglobin (17 kDa), and vitamin B12 (1.35 kDa). The eluted protein peak was observed using UV absorbance at 280 nm. To normalize the lowest and highest intensity value, they were set to 0% and 100%, respectively, which was plotted against elution volume in GraphPad Prism (San Diego, CA).

Test [6] concerns the target T3, PKM2 R106A. The experiment in a line: Gel-filtration study of oligomeric state. The note with it: 0.1 mg/ml PKM2 R106A, 10 mM AA. How it is done:
as §2

Test [7] concerns the target T1, wtPKM2. The experiment in a line: Gel-filtration study of oligomeric state. The note with it: 0.1 mg/ml wtPKM2, 10 mM AA. The protocol: as §2
Test [8] deals with T4, PKM2 N70D (Homo sapiens, UniProt P14618, N70D). The experiment in a line: PKM2-LDH coupled pyruvate kinase activity assay. The note with it: 65 nM PKM2 N70D in presence of 2 mM of the labelled AA; PEP 0.025–8 mM, ADP 0.8 mM.
Description: as §3
Test [9] has as its target T4, PKM2 N70D. The test is described as follows: Gel-filtration study of oligomeric state. The note with it: 0.1 mg/ml PKM2 N70D, 10 mM AA. More on the design: made in house; host or cells: E. coli BL21(DE3) pLysS. The protocol: as §2
Test [10] concerns the target T1, wtPKM2. More on the design: method as in PMID 32144209. The note with it: wtPKM2 in the presence of Val; cited from earlier work.
For test [11], the target named is T2, PKM2 N75L. The experiment in a line: Ligand binding assay, intrinsic tryptophan fluorescence quenching. The note with it: 1.6 μM PKM2 N75L, no AA ligand; read-out: Kd, ADP as titrant. How it is done: The decrease of intrinsic tryptophan fluorescence with increasing substrate concentration was measured using a Cary Eclipse Fluorescence Spectrophotometer (Agilent Technologies, Santa Clara, CA). To determine the binding affinity of wtPKM2 and the variants for the AAs mentioned previously, the enzymes were dissolved in the buffer followed by monitoring fluorescence quenching as the AA concentration was increased. The wavelength used to excite PKM2 was set at 295 nm, while the emission wavelength was 340 nm with slit widths of 5 and 10 nm, respectively. The fluorescence intensity values were used to calculate fractional saturation, which was fitted to the one-site specific binding Eq (3), or the Hill Eq (4) using GraphPad Prism (San Diego, CA), Y=Bmax×X/Kd+X (3) Y=Bmax×x^h/Kdh+x^h (4) where Bmax is maximum binding, Y is fractional saturation, h is the Hill coefficient, Kd is dissociation constant, and X is ligand concentration.

Test [12] concerns the target T1, wtPKM2. To be noted: cited from earlier work.
For test [13], the target named is T4, PKM2 N70D. The experiment in a line: Ligand binding assay, intrinsic tryptophan fluorescence quenching. More on the design: made in house; host or cells: E. coli BL21(DE3) pLysS. To be noted: no AA ligand, read-out: Kd, ADP as titrant. The protocol: as §1
[14] abbreviates: 2 mM AA, 10 nM enzyme, PEP 0.15–8 mM, versus no AA.
Setting [15] is: 1.6 μM PKM2 R106A, read-out: Kd for the AA (AA as titrant).

T1 sequence (P14618 whole entry): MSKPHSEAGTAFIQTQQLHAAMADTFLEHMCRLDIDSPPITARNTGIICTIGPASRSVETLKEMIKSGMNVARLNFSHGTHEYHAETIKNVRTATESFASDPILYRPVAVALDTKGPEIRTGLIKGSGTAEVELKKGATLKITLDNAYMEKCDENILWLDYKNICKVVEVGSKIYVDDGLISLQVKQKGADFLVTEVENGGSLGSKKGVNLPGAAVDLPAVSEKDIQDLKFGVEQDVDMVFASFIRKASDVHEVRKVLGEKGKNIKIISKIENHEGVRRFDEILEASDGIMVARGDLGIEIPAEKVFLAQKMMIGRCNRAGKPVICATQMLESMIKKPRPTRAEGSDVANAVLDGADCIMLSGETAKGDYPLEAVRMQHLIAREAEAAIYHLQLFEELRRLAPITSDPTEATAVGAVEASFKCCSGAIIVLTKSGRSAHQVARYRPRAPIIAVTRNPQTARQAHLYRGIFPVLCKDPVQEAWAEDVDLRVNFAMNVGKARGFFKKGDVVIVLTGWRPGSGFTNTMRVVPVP
T4 sequence (P14618 whole entry N70D): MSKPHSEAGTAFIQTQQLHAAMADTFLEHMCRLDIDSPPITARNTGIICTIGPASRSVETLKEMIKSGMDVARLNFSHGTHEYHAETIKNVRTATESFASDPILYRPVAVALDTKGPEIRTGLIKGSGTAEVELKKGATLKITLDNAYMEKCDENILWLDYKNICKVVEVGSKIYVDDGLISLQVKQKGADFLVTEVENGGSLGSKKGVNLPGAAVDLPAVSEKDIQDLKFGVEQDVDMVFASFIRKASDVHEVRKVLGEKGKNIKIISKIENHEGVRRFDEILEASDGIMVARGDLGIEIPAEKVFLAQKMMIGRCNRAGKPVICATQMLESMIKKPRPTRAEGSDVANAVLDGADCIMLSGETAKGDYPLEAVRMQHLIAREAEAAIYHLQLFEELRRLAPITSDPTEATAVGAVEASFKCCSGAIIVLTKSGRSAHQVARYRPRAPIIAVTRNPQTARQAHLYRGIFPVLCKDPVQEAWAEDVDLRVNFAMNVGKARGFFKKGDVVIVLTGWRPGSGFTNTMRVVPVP
T3 sequence (P14618 whole entry R106A): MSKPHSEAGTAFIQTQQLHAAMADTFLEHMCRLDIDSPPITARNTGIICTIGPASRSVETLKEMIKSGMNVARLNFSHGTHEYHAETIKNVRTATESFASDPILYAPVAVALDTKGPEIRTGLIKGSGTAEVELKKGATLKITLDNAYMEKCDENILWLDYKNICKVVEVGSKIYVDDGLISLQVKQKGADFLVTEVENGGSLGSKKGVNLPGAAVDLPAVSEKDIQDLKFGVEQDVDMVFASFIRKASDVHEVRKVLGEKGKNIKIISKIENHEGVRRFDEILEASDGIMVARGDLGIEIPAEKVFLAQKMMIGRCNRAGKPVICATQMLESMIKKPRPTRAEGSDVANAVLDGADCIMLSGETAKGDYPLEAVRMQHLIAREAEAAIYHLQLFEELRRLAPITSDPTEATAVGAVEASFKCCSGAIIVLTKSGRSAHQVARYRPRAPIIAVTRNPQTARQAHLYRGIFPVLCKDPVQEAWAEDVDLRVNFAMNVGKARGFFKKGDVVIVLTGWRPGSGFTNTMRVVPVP
T2 sequence (P14618 whole entry N75L): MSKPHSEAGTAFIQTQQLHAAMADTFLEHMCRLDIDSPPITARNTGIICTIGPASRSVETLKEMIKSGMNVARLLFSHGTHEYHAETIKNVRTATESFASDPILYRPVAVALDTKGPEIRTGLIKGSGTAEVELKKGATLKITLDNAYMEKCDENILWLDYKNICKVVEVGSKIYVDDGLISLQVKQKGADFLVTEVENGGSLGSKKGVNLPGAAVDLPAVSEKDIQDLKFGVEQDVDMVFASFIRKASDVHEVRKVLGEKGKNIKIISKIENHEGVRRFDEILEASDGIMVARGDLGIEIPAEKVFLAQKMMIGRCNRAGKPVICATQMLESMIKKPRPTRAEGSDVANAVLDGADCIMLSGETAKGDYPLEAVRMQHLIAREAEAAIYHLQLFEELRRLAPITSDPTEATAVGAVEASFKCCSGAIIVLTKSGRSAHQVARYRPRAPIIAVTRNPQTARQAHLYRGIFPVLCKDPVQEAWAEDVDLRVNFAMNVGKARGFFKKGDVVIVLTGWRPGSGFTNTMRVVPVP

What is called Vmax is the top rate of the reaction or transport when substrate is in excess. As a reminder, the Kd is the free concentration of one partner at which half of the binding sites on the other are occupied at equilibrium, for simple one-to-one binding. Regarding `N[C@@H](CS)C(=O)O` [Cys, cysteine], the Vmax in test [1] amounted to 65 ± 7 µM/min; in test [2], 33 ± 3 µM/min; in test [3], 291 ± 9 µM/min; in test [8] it was 334 ± 15 µM/min. For the same compound, the kcat in test [1] is 6.5±0.7 ×10^3 min^-1; in [2] it was 0.008±0.0 ×10^3 min^-1; in test [3], 5.8±0.2 ×10^3 min^-1; in test [8] it was 5.1±0.2 ×10^3 min^-1. Moreover, the “decrease of kcat/Km of wtPKM2” value in test [1] (setting [14]) was ~ 4 fold. Also, the “decrease of catalytic efficiency of PKM2 R106A” value in test [3] is 2–7 fold. The Kd in [4] (setting [15]) worked out at 36 µM. In addition, the “weakening of ADP binding affinity versus absence of any AAs” value in test [4] is given as ~ 10 fold. The “decrease of affinity for the AA relative to wtPKM2” value in test [4] is given as 2–4 fold. Further, the oligomeric state change entry in test [5] was “the dimer/monomer fraction increased”; in test [6], “resulted in a mixture of tetramer and dimer/monomer equilibrium”; in test [7], “shift from an active tetramer to a mixture of tetramer and dimer/monomer equilibrium”; in test [9], “did not change the oligomeric state”.
Take `CC(C)[C@H](N)C(=O)O` [Val, valine]: the Vmax in test [1] was found to be 74 ± 5 µM/min; in test [2], 34 ± 2 µM/min; in test [3] it was 346 ± 12 µM/min; in [8] it was 324 ± 37 µM/min. Moreover, the kcat was 7.4±0.5 ×10^3 min^-1 in [1], 0.008±0.0 ×10^3 min^-1 in test [2], 6.9±0.2 ×10^3 min^-1 in [3] and 4.9±0.6 ×10^3 min^-1 in test [8]. Moreover, in test [1] (setting [14]), the “decrease of kcat/Km of wtPKM2” value was ~ 4 fold. For the same compound, the “decrease of catalytic efficiency of PKM2 R106A” value in [3] is reported as 2–7 fold. Further, in test [4] (setting [15]), the Kd was roughly 1600 µM. Moreover, the “weakening of ADP binding affinity versus absence of any AAs” value in test [4] is given as ~ 10 fold. For the same compound, the “decrease of affinity for the AA relative to wtPKM2” value in test [4] is reported as 2–4 fold. Besides, the oligomeric state change entry in [5] was “the dimer/monomer fraction increased”; in test [6] it was “resulted in a mixture of tetramer and dimer/monomer equilibrium”; in [10], “shift from an active tetramer to a mixture of tetramer and dimer/monomer equilibrium”; in [9] it was “did not change the oligomeric state”.
Regarding `NC(=O)C[C@H](N)C(=O)O` [Asn, asparagine], the Vmax in test [1] worked out at 113 ± 4 µM/min; in test [2] it was 50 ± 2 µM/min; in [3] it was 318 ± 8 µM/min; in test [8], 340 ± 8 µM/min. For the same compound, the kcat in test [1] is reported as 11.3±0.4 ×10^3 min^-1; in test [2] it was 0.012±0.0 ×10^3 min^-1; in test [3], 6.3±0.2 ×10^3 min^-1; in [8], 5.2±0.3 ×10^3 min^-1. The “increase of kcat/Km of wtPKM2” value in [1] (setting [14]) is ~ 8 fold. Also, the “decrease of affinity for the AA relative to wtPKM2” value in [4] is reported as 2–4 fold. The Kd in test [4] ([…] PKM2 R106A, read-out: Kd for the AA (AA as titrant)) came out at 42 ± 10 µM. In test [9], the oligomeric state change result is “dimer/monomer fraction decreased”.
`N[C@@H](CC(=O)O)C(=O)O` [Asp, aspartate]: the Vmax turned out to be 104 ± 2 µM/min in test [1], 51 ± 3 µM/min in test [2], 295 ± 6 µM/min in test [3] and 307 ± 10 µM/min in [8]. In addition, the kcat is reported as 10.4±0.2 ×10^3 min^-1 in [1], 0.012±0.0 ×10^3 min^-1 in test [2], 5.9±0.1 ×10^3 min^-1 in test [3] and 4.7±0.1 ×10^3 min^-1 in test [8]. Also, the Kd in test [4] (setting [15]) was roughly 70 µM. Also, the oligomeric state change result in test [9] is reported as “dimer/monomer fraction decreased”.
As for `Nc1ncnc2c1ncn2[C@@H]1O[C@H](COP(=O)(O)OP(=O)(O)O)[C@@H](O)[C@H]1O` [ADP, adenosine diphosphate], the Kd was 449 ± 48 µM in test [11]; 257 ± 24 µM in [4] (1.6 μM PKM2 R106A, no AA ligand, read-out: Kd, ADP as titrant); 237 ± 54 µM in test [12] ([…] wtPKM2, no AA ligand, marked (2) in S2 Table, read-out: Kd, ADP as titrant); 644 ± 154 µM in [13].
For the compound `C=C(OP(=O)(O)O)C(=O)O` [PEP, phosphoenolpyruvate], the Kd in test [12] (read-out: Kd, PEP as titrant, […] wtPKM2, no AA ligand, marked (2) in S2 Table) was 10 ± 2 µM.
`O=C(COP(=O)(O)O)[C@@H](O)[C@H](O)[C@H](O)COP(=O)(O)O` [FBP, fructose-1,6-bisphosphate]: in test [12] (wtPKM2, read-out: Kd for FBP), the Kd was 0.00098 µM and 0.001 µM.
